Columns and labels:
[1] = target: T1, human FGFR3 wild type enzyme (cytoplasmic domain) (Homo sapiens, UniProt P22607); assay: FGFR3 wild type mobility shift assay (enzymatic assay); type: biochemical; conditions: 75 μM ATP, 50 minutes at 30° C., Caliper EZ reader II
T1 construct: human FGFR3 wild type enzyme (cytoplasmic domain, from Carna Biosciences)
Experimental: FGFR3 Wild Type Mobility Shift Assay (Enzymatic Assay)
(§1) In a final reaction volume of 25 μL, 0.04 ng/μL human FGFR3 wild type enzyme (cytoplasmic domain, from Carna Biosciences) was incubated with 75 μM ATP, 1 μM FL-peptide 30 substrate and 250 nL of testing compound (1% DMSO final) in assay buffer (100 mM HEPES pH 7.4, 10 mM MgCl2, 0.003% Brij35, 1 mM DTT). After incubation for 50 minutes at 30° C. the reaction was stopped with 10 μL of 0.5M EDTA pH 8.0, and then 25 μL of reaction mixture was transferred to reading plate and measured on Caliper EZ reader II.

[2] = target: T2, human FGFR3 V555M enzyme (cytoplasmic domain carrying V555M mutation) (Homo sapiens, UniProt P22607, V555M); assay: FGFR3 V555M mobility shift assay (enzymatic assay); type: biochemical; conditions: 30 μM ATP, 45 minutes at 30° C., Caliper EZ reader II
T2 construct: human FGFR3 V555M enzyme (cytoplasmic domain carrying V555M mutation, from Carna Biosciences)
Experimental: FGFR3 V555M Mobility Shift Assay (Enzymatic Assay)
as §1, with “FGFR3 V555M” for “FGFR3 wild type”, “(cytoplasmic domain carrying V555M mutation,” for “(cytoplasmic domain,”, “with 30” for “with 75”, “for 45” for “for 50”

[3] = target: T3, NIH/3T3 cells overexpressing FGFR3 WT-TACC3 fusion protein (Homo sapiens, UniProt P22607); assay: NIH/3T3 FGFR3 WT-TACC3 cell proliferation assay; type: cell-based; conditions: 72-hr incubation, CellTiter Glo; read-out: NIH/3T3 FGFR3 WT-TACC3 CTG (IC50)
T3 construct: fused on or other part: Q9Y6A5 (Transforming acidic coiled-coil-containing protein 3)
Experimental: NIH/3T3 FGFR3 WT-TACC3 Cell Proliferation Assay
(§2) In day 1, 90 μL of cell suspension (NIH/3T3 cells overexpressing FGFR3 WT-TACC3 fusion protein) (total 30,000 cells per well in growth medium (DMEM containing 1% Glutamax, 10% FBS and 1% Pen/Strep)) was seeded in a 96-well plate and then incubated overnight at 37° C. and 5% CO2. In day 2, 10 μL of growth medium containing 10-fold stock solution of testing compound was added into cell cultures (9 dose points with 4× serial dilution, starting with 10 μM, 0.1% DMSO final). After 72-hr incubation at 37° C. and 5% CO2, in day 5 a volume of 50 μL CellTiter Glo (CTG) reagent was added into cell-containing 96-well plate and the plate was incubated at room temperature for 10 minutes before RLUs (relative light unit) were measured on a microplate reader with luminescence detection module. The RLU value was normalized to survival % and concentration-response curve was plotted using Prism to calculate IC50 (M), pIC50 (−log IC50) and HillSlope value.

[4] = target: T4, NIH/3T3 cells overexpressing FGFR3 V555M-TACC3 fusion protein (Homo sapiens, UniProt P22607, V555M, cells depend on it); assay: NIH/3T3 FGFR3 V555M-TACC3 cell proliferation assay; type: cell-based; conditions: 72-hr incubation, CellTiter Glo; read-out: NIH/3T3 FGFR3 V555M-TACC3 CTG (IC50)
T4 construct: fused on or other part: Q9Y6A5 (Transforming acidic coiled-coil-containing protein 3)
Experimental: NIH/3T3 FGFR3 V555M-TACC3 Cell Proliferation Assay
as §2, with “V555M-TACC3” for “WT-TACC3”

T1 sequence (P22607 397-806): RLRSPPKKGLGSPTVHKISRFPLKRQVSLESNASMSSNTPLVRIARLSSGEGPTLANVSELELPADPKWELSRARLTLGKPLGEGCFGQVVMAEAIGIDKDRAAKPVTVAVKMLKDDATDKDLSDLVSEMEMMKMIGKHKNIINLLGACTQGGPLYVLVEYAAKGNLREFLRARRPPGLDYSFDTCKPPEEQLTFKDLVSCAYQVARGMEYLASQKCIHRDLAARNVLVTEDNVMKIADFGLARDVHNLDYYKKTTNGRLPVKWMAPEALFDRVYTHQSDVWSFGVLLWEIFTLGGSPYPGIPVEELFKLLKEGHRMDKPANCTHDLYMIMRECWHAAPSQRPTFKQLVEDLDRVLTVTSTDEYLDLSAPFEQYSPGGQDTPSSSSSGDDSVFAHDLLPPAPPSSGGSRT
T4 sequence (P22607 whole entry V555M, the tested form may be a part): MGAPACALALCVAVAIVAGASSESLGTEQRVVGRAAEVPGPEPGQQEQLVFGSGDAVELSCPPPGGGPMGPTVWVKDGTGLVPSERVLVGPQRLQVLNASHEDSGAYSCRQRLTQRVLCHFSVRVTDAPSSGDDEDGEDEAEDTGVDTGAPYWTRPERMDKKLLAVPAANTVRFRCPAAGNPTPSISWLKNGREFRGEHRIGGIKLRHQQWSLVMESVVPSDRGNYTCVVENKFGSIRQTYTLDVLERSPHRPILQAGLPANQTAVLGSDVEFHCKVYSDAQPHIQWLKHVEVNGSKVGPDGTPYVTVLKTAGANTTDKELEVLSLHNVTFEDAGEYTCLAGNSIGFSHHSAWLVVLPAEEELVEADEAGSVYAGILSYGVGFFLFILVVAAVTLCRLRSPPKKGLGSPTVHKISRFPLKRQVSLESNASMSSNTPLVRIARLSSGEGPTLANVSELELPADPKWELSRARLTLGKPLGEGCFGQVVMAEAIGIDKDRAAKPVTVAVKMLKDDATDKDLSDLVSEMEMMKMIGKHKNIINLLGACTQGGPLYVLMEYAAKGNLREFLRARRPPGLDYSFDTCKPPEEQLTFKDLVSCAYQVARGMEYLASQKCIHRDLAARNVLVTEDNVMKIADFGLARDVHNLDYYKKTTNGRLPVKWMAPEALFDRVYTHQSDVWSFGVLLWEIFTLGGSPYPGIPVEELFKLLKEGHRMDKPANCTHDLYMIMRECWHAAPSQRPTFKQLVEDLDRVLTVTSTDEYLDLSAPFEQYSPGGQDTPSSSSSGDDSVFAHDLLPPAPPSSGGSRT
T3 sequence (P22607 whole entry, change not shown, the tested form may be a part): as the sequence (P22607 whole entry V555M, the tested form may be a part) above, with M555V counted along it
T2 sequence (P22607 397-806 V555M): as the sequence (P22607 397-806) above, with V159M counted along it

IC50 [1] [nM]	IC50 [2] [nM]	GI50 [3] [nM]	GI50 [4] [nM]	SMILES
6.77	1.05	67.1	50.7	CC(C)C(Nc1c(-c2nc3cnc(N(C)C)cc3[nH]2)c(=O)[nH]c2cn(C)nc12)c1ncccn1 (single isomer, unassigned) [Compound 11, (S*)-6-(6-(dimethylamino)-1H-imidazo[4,5-c]pyridin-2-yl)-2-methyl-7-((2-methyl-1-(pyrimidin-2-yl)propyl)amino)-2H-pyrazolo[4,3-b]pyridin-5(4H)-one]
7.67	1.56	33.6	50.4	CCn1cc2[nH]c(=O)c(-c3nc4cc(OC)c(OC)cc4[nH]3)c(NC(C)c3cocn3)c2n1 (single isomer, unassigned) [Compound 5A, (S*)-6-(5,6-Dimethoxy-1H-benzo[d]imidazol-2-yl)-2-ethyl-7-((1-(oxazol-4-yl)ethyl)amino)-2H-pyrazolo[4,3-b]pyridin-5(4H)-one]
13.5	2.5	166	117	CC(C)[C@H](Nc1c(-c2nc3cnccc3[nH]2)c(=O)[nH]c2cn(C)nc12)c1ncccn1 (single isomer, unassigned) [Compound 24, (S*)-6-(1H-imidazo[4,5-c]pyridin-2-yl)-2-methyl-7-((2-methyl-1-(pyrimidin-2-yl)propyl)amino)-2H-pyrazolo[4,3-b]pyridin-5(4H)-one]
4.33	0.803	202	200	CC(C)C(Nc1c(-c2nc3ccc(C(N)=O)cc3[nH]2)c(=O)[nH]c2cn(C)nc12)c1ncccn1 (single isomer, unassigned) [Compound 9, (S*)-2-(2-methyl-7-((2-methyl-1-(pyrimidin-2-yl)propyl)amino)-5-oxo-4,5-dihydro-2H-pyrazolo[4,3-b]pyridin-6-yl)-1H-benzo[d]imidazole-6-carboxamide]
15.4	2.65	357	359	COCC(Nc1c(-c2nc3cc(OC)c(OC)cc3[nH]2)c(=O)[nH]c2cn(C)nc12)c1ncccn1 (single isomer, unassigned) [Compound 25, (S*)-6-(5,6-dimethoxy-1H-benzo[d]imidazol-2-yl)-7-((2-methoxy-1-(pyrimidin-2-yl)ethyl)amino)-2-methyl-2H-pyrazolo[4,3-b]pyridin-5(4H)-one]
4.52	0.753	65	45.9	COc1ccc2nc(-c3c(N[C@H](c4ncccn4)C(C)C)c4nn(C)cc4[nH]c3=O)[nH]c2c1 (single isomer, unassigned) [Compound 15, (S*)-6(5-Methoxy-1H-benzo[d]imidazol-2-yl)-2-methyl-7-((2-methyl-1-(pyrimidin-2-yl)propyl)amino)-2H-pyrazolo[4,3-b]pyridin-5(4H)-one]
